In patent US9636345B2, “Benzimidazole derivatives useful TRPM8 channel modulators” (Janssen Pharmaceutica NV, priority 2009, dated 2017):
Structures can show the parent of a compound that is named as a salt. Where two headings read alike, the source gives them in different places.

How the values were obtained:
Male Sprague Dawley rats = assay: Inhibition of icilin-induced "wet-dog" shakes in rats; assay type: in vivo; conditions: rat; 10 mg/kg p.o.; 60 min pre-icilin; vehicle 0.5% HPMC
Description: Male Sprague Dawley rats ([…], Charles River Labs, n=6-9/treatment) were used to evaluate the ability of test compounds to block icilin-induced “wet-dog” shakes (WDS). The test compound was administered at 10 mg/kg in an appropriate vehicle, such as hydroxypropyl-β-cyclodextrin (HP-β-CD), methocellulose, 10% Solutol, H2O or the like, by the appropriate route (e.g., i.p or p.o), 30-60 min before icilin. Icilin was then administered in PEG-400 or 10% solutol/H2O, at 1.0 or 3.0 mg/kg, i.p. and spontaneous “wet-dog” shakes were counted 10-20 min post-icilin.
A representative compound of the present invention was tested at 10 mg/kg p.o. and 60 min pre-icilin, according to the procedure described above. Results, as listed in Table 8 below, are presented as a percent inhibition of shakes, which was calculated as [1−(test compound WDS count/vehicle WDS count)]×100.

canine TRPM8 = target: T1, canine TRPM8 (Canis lupus familiaris, UniProt Q1A7N1); assay: In vitro canine TRPM8 functional assay (icilin-induced intracellular Ca2+ increase, FLIPR/FDSS); assay type: cell-based; conditions: for inhibition at 0.2 µM / % Inh @ 0.2 μM: 0.2 μM compound, HEK293 canine TRPM8, Table 6; for % Inh @ 1 μM: 1 μM compound, samples diluted from 10 mM stock with 100% DMSO
T1 construct: expressed in transfected cells
Description: The functional activity of representative compounds of the formula (I) of the present invention was quantified by measuring changes in intracellular calcium concentration using a Ca^2+-sensitive fluorescent dye. The changes in fluorescent signal were monitored by a fluorescence plate reader, either a FLIPR™ (Molecular Devices) or FDSS (Hamamatsu).
HEK293 cells stably expressing canine TRPM8 were routinely grown as monolayers in Dulbecco's minimum essential medium supplemented with 10% FBS, 2 mM L-glutamine, 100 units/mL penicillin, 100 ug/mL streptomycin and 400 μg/mL G418. Cells were maintained in 5% CO2 at 37° C. At 24 hr prior to assay, cells were seeded in black wall, clear-base poly-D-lysine coated 384-well plates (BD Biosciences, N.J., USA) at a density of 5,000 cells per well in culture medium and grown overnight in 5% CO2 at 37° C. On assay day, growth media was removed, and cells were loaded with Calcium 3 Dye (Molecular Devices) for 35 min at 37° C., under 5% CO2 and then incubated for 25 min at room temperature and atmosphere. Subsequently, cells were tested for agonist-induced increases in intracellular Ca^2+ levels using FLIPR™ or FDSS. Cells were treated with compounds of the formula (I) at varying concentrations and intracellular Ca^2+ was measured for 5 min prior to the addition of icilin to all wells to achieve a final concentration that produces approximately an 80% maximal response.
Basal FI was subtracted prior to normalizing data to percent of maximal response. Curves were generated using the average of quadruplicate wells for each data point using nonlinear regression of either sigmoidal dose response or sigmoidal dose response (variable slope). Finally, the EC50 and IC50 values were calculated with the best-fit curve determined by GraphPad Prism
Test samples were prepared by diluting a 10 mM stock solution of test compound with 100% DMSO prior to addition to assay buffer.

T1 sequence (Q1A7N1 1-1104): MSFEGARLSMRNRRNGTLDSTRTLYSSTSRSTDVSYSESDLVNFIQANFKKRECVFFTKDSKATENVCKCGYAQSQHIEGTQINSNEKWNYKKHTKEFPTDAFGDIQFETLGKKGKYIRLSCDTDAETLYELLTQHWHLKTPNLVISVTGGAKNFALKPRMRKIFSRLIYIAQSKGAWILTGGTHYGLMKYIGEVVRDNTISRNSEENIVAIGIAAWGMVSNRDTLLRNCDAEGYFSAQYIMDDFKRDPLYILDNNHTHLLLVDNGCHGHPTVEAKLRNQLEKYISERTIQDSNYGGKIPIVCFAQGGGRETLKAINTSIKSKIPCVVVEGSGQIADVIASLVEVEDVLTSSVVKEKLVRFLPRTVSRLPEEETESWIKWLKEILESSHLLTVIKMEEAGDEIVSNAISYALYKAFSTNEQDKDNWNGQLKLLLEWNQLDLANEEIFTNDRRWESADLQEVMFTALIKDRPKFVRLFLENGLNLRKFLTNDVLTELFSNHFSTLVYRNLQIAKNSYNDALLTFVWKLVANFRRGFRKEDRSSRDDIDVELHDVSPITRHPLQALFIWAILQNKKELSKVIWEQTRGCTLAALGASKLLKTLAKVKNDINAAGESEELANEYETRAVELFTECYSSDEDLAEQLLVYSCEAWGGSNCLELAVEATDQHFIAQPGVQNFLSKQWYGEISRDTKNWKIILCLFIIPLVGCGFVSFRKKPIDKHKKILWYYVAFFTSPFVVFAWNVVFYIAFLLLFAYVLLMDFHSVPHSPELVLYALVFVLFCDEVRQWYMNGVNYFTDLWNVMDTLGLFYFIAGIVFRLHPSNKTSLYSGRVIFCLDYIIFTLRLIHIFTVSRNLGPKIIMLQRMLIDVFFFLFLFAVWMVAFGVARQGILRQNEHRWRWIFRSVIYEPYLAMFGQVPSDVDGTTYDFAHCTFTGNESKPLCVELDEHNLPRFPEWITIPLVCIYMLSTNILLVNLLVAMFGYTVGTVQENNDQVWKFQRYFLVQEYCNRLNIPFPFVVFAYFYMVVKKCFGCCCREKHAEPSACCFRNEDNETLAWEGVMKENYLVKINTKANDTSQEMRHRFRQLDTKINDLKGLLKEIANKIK

Structure (SMILES) | % Inh @ 0.2 μM (canine TRPM8) [%] | further results
CCn1c(=NS(=O)(=O)c2ccccc2)n(Cc2ccc(C(F)(F)F)c(F)c2)c2cc(C(F)(F)F)ccc21 [Compound 37] | – | % Inhibition of icilin-induced "wet-dog" shakes (Male Sprague Dawley rats): 0.6%; IC50 (canine TRPM8): 0.005 µM; inhibition at 0.2 µM (canine TRPM8): 93%
Cc1ccc2c(c1)n(C)c(=NS(=O)(=O)c1ccccc1)n2Cc1ccc(OC(F)(F)F)cc1 [Compound 54] | 6 | % Inh @ 1 μM (canine TRPM8; re-test, Table 7): 55%; IC50 (canine TRPM8; re-test, samples diluted from 10 mM stock with 100% DMSO before addition to assay buffer, Table 7, read-out: IC50): 0.645 µM
Cc1ccc2c(c1)n(C)/c(=N/S(=O)(=O)c1ccccc1)n2Cc1ccc(C(F)(F)F)c(F)c1 [Compound 55, N-[1-(3-Fluoro-4-trifluoromethyl-benzyl)-3,5-dimethyl-1,3-dihydro-benzimidazol-2-ylidene]-benzene sulfonamide] | – | inhibition at 0.2 µM (canine TRPM8): 18%
Cc1ccc2c(c1)n(C)c(=NS(=O)(=O)c1ccccc1)n2Cc1ccc(C(F)(F)F)cc1 [Compound 56] | 1 | % Inh @ 1 μM (canine TRPM8; re-test, Table 7): 40%
Cn1c(=NS(=O)(=O)c2ccccc2)n(Cc2ccc(C(F)(F)F)c(F)c2)c2ccc(C(F)(F)F)cc21 [Compound 57] | 45 | –
Cn1c(=NS(=O)(=O)c2ccccc2)n(Cc2ccc(OC(F)(F)F)cc2)c2ccc(C(F)(F)F)cc21 [Compound 58] | 25 | –
Cn1c(=NS(=O)(=O)c2ccccc2)n(Cc2ccc(C(F)(F)F)cc2)c2ccc(C(F)(F)F)cc21 [Compound 59] | 20 | –
Cc1cc2c(cc1C)n(Cc1ccc(OC(F)(F)F)cc1)c(=NS(=O)(=O)c1ccccc1)n2C [Compound 60] | 5 | % Inh @ 1 μM (canine TRPM8; re-test, Table 7): 48%
Cc1cc2c(cc1C)n(Cc1ccc(C(F)(F)F)c(F)c1)c(=NS(=O)(=O)c1ccccc1)n2C [Compound 61] | 14 | –
Cc1cccc2c1n(Cc1ccc(C(F)(F)F)c(F)c1)c(=NS(=O)(=O)c1ccccc1)n2C [Compound 62] | 19 | –
O=S(=O)(/N=c1\n(Cc2ccc(C(F)(F)F)cc2)c2cccc3c2n1CCO3)c1ccccc1 [Compound 63, N-[1-(4-Trifluoromethyl-benzyl)-3,4-dihydro-1H-5-oxa-1,2a-diaza-acenaphthylen-2-ylidene]-benzenesulfonamide TFA salt] | – | inhibition at 0.2 µM (canine TRPM8): 34%
O=S(=O)(N=c1n2c3c(cccc3n1-c1ccc(OC(F)(F)F)cc1)OCC2)c1ccccc1 [Compound 64] | 61 | –
